Assay results reported in patent US9862684B2, “Modulation of K2P channels” (The Regents of the University of California, priority 2013, dated 2018).
pEC50: −log10 of the molar value.

How the values were obtained:
K2P2.1 (TREK-1) = target: T1, K2P2.1 (TREK-1) (Mus musculus, UniProt P97438); test: Two-electrode voltage clamp of Xenopus oocytes expressing K2P2.1 (TREK-1); type: cell-based, Murine; conditions: Xenopus oocytes; for effect on K2P2.1 (TREK-1) function / activity (in words): two-electrode voltage clamp
T1 construct: expressed in transfected cells; host or cells: Xenopus oocytes (cRNA injection, pGEMHE/pMO)
T1 sequence (P97438 1-411 isoform P97438-2): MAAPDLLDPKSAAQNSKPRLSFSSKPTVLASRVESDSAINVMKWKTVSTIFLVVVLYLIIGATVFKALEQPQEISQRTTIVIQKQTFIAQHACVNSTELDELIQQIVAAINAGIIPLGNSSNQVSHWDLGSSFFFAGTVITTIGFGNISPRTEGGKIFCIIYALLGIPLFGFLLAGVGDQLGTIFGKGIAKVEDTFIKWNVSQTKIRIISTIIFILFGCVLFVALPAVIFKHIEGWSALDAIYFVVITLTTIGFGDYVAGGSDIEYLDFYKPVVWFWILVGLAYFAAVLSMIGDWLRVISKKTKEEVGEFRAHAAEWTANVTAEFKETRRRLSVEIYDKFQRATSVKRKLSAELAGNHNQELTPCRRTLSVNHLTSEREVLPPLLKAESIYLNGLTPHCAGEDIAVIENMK
Method: (§1) Two-electrode voltage clamp recordings were performed from defolliculated stage V-VI Xenopus oocytes 24-48 hours after injection with 0.015-6.0 ng cRNA, using microelectrodes (0.3-3.0 MΩ) filled with 3M KCl. […] Recording solutions (mM): 2K (96 NaCl, 2 KCl, 1.8 CaCl2, 2 MgCl2), 90K (90 KCl, 8 NaCl, 1.8 CaCl2, 2 MgCl2), were buffered 5 mM HEPES pH 7.4. For K2P recordings, currents we elicited by a 1 second long ramp from −150 to +50 mV from a holding potential of −80 mV (2K), or −100 to +50 mV from a holding potential of 0 mV (90K). For KCNQ2 recordings, currents were elicited by a step protocol from −120 to 60 mV, in 20 mV increments, from a holding potential of −80 mV. […] Currents were elicited by a 1 second long ramp from −150 to +50 mV from a holding potential of −80 mV.

TREK-1 = target: T2, TREK-1 (Mus musculus, UniProt P97438); test: Modulation of TREK-1 by select compounds (agonist activity), Table 3; type: cell-based, Murine; conditions: for pEC50: agonist activity on TREK-1
T2 construct: expressed in transfected cells
T2 sequence (P97438 1-411 isoform P97438-2): T1 sequence (P97438 1-411 isoform P97438-2)
Method: as §1

Structure (SMILES)	comments (comparison with ML67-33 / ML67-142, dose-response remark) (TREK-1)	pEC50 (TREK-1)	% activity at 50 μM (TREK-1) [%]	also measured
O=C(O)CCn1c2ccccc2c2ccccc21 [ML67-2, 3-carbazol-9-ylpropanoic acid]				Emax (fold) at 500 μM (K2P2.1 (TREK-1); at 500 μM): 1.3 ± 0.1 at 500 μM fold; effect on K2P2.1 (TREK-1) function / activity (in words) (K2P2.1 (TREK-1)): reduced activity
O=C(O)CCn1c2ccccc2c2cc(I)ccc21 [ML67-14, 3-(3-iodocarbazol-9-yl)propanoic acid]	No plateau	< 3.30		
O=C(O)CCCn1c2ccc(Cl)cc2c2cc(Cl)ccc21 [ML67-15, 4-(3,6-dichlorocarbazol-9-yl) butanoic acid]				Emax (fold) at 200 μM (K2P2.1 (TREK-1); at 200 μM): 4.7 ± 0.9 at 200 μM fold; effect on K2P2.1 (TREK-1) function / activity (in words) (K2P2.1 (TREK-1)): did not significantly improve potency
Clc1ccc2c(c1)c1cc(Cl)ccc1n2CCc1nnn[nH]1 [ML67-18, 3,6-dichloro-9-[2-(1H-tetrazol-5-yl)ethyl]carbazole]		3.90		Emax (fold) (K2P2.1 (TREK-1); fold over basal current, no concentration stated): ~18 fold
O=C(O)CCN1c2ccc(Cl)cc2Sc2cc(Cl)ccc21 [ML67-26, 3-(3,7-dichloro-phenothiazin-10-yl)propanoic acid]	No plateau	~3.70		
Clc1ccc2c(c1)c1cc(Cl)ccc1n2[C@H]1C[C@H](c2nnn[nH]2)C1 [ML67-30, 3,6-dichloro-9-[3-(1H-tetrazol-5-yl)cyclobutyl] carbazole (trans)]		> 3.90		
Brc1ccc2c3ccc(Br)cc3n(CCc3nnn[nH]3)c2c1 [ML67-34, 2,7-dibromo-9-[2-(1H-tetrazol-5-yl)ethyl]carbazole]	Not better than ML67-33	< 4.41	13.4	
c1ccc2c(c1)Oc1ccccc1N2CCc1nnn[nH]1 [ML67-35, 10-[2-(1H-tetrazol-5-yl)ethyl] phenoxazine]	Not better than ML67-33	< 4.41	17.8	
c1ccc2c(c1)Sc1ccccc1N2CCc1nnn[nH]1 [ML67-36, 10-[2-(1H-tetrazol-5-yl)ethyl] phenothiazine]		< 4.41		
Brc1ccc2c(c1)Sc1cc(Br)ccc1N2CCc1nnn[nH]1 [ML67-37, 3,7-dibromo-10-[2-(1H-tetrazol-5-yl)ethyl] phenothiazine]	Not better than ML67-33	< 4.41	96	
Brc1ccc2c(c1)Oc1cc(Br)ccc1N2CCc1nnn[nH]1 [ML67-38, 3,7-dibromo-10-[2-(1H-tetrazol-5-yl)ethyl] phenoxazine]	Not better than ML67-33	< 4.41	68.8	
CC1(C)c2ccccc2N(CCc2nnn[nH]2)c2ccccc21 [ML67-39, 9,9-dimethyl-10-[2-(1H-tetrazol-5-yl)ethyl]acridine]	Not better than ML67-33	< 4.41	29.2	
CC1(C)c2cc(Br)ccc2N(CCc2nnn[nH]2)c2ccc(Br)cc21 [ML67-137, 2,7-dibromo-9,9-dimethyl-10-[2-(1H-tetrazol-5-yl)ethyl]acridine]			100	Emax (fold) at 100 μM (K2P2.1 (TREK-1); at 100 μM (FIG. 4, 7 legends), marked ** in Table 1, footnote not given): 9.2 ± 1.4** fold; effect on K2P2.1 (TREK-1) function / activity (in words) (K2P2.1 (TREK-1)): did not significantly improve activity; % activity at 10 μM (TREK-1; 10 μM): 80%
Clc1ccc2c(c1)C1(CCCC1)c1cc(Cl)ccc1N2CCc1nnn[nH]1 [ML67-138, 2,7-dichloro-10-[2-(1H-tetrazol-5-yl)ethyl]spiro [acridine-9,1′-cyclopentane]]		4.74		
Clc1ccc2c(c1)C1(CCOCC1)c1cc(Cl)ccc1N2CCc1nnn[nH]1 [ML67-139, 2,7-dichloro-10-[2-(1H-yl)ethyl]spiro [acridine-9,4′-oxane]]	Not better than ML67-33	< 4.41	60.7	
O=C(O)CCN1c2ccc(Cl)cc2C2(CCCCC2)c2cccc(Cl)c21 [ML67-140, 3-(2,5-dichlorospiro [acridine-9,1′-cyclohexane]-10-yl)propanoic acid]	Not better than ML67-33	< 4.41	57.7	
O=C(O)CCN1c2ccc(Cl)cc2C2(CCCCC2)c2cc(Cl)ccc21 [ML67-141, 3-(2,7-dichlorospiro [acridine-9,1′-cyclohexane]-10-yl)propanoic acid]	Better than ML67-33; not better than (ML67-142)	4.41 to 5.07		
Clc1ccc2c(c1)C1(CCCCC1)c1cc(Cl)ccc1N2CCc1nnn[nH]1 [ML67-142, 2,7-dichloro-10-[2-(1H-tetrazol-5-yl)ethyl]spiro [acridine-9,1′-cyclohexane]]		5.07		
Clc1ccc2c(c1)C1(CCCCC1)c1cccc(Cl)c1N2CCc1nnn[nH]1 [ML67-143, 2,5-dichloro-10-[2-(1H-tetrazol-5-yl)ethyl]spiro [acridine-9,1′-cyclohexane]]	Better than ML67-33; Not better than (ML67-142)	4.41 to 5.07		
c1ccc2c(c1)N(CCc1nnn[nH]1)c1ccccc1C21CCCCC1 [ML67-144, 10-[2-(1H-tetrazol-5-yl)ethyl]spiro [acridine-9,1′-cyclohexane]]	Not better than ML67-33	< 4.41	32.3	
Brc1ccc2c(c1)C1(CCCCC1)c1cc(Br)ccc1N2CCc1nnn[nH]1 [ML67-145, 2,7-dibromo-10-[2-(1H-1,2,3,4-tetrazol-5-yl)ethyl]-10H-spiro[acridine-9,1′-cyclohexane]]	Better than ML67-33; Not better than (ML67-142)	4.41 to 5.07		
OCc1ccc2c(c1)C1(CCCCC1)c1cc(Br)ccc1N2CCc1nnn[nH]1 [ML67-146, 2-bromo-10-[2-(1H-1,2,3,4-tetrazol-5-yl)ethyl]-10H-spiro[acridine-9,1′-cyclohexane]-7-ylmethanol]	Not better than ML67-33	< 4.41	25.9	
O=C(O)CCN1c2ccc(Br)cc2C2(CCCCC2)c2cc(Br)ccc21 [ML67-147, 3-{2,7-dibromo-10H-spiro[acridine-9,1′-cyclohexane]-10-yl}propanoic acid]	Not better than ML67-33	< 4.41	84.1	
CS(=O)(=O)NC(=O)CCN1c2ccc(Br)cc2C2(CCCCC2)c2cc(Br)ccc21 [ML67-148, 3-{2,7-dibromo-10H-spiro[acridine-9,1′-cyclohexane]-10-yl}-N-methanesulfonyl-propanamide]	Better than ML67-33; Not better than (ML67-142)	4.41 to 5.07		
C#Cc1ccc(S(=O)(=O)NC(=O)CCN2c3ccc(Br)cc3C3(CCCCC3)c3cc(Br)ccc32)cc1 [ML67-150, 3-{2,7-dibromo-10H-spiro[acridine-9,1′-cyclohexane]-10-yl}-N-(4-ethynyl-benzenesulfonyl) propanamide]	Not better than ML67-33	< 4.41		
O=C(O)CCC(CN1c2ccc(Br)cc2C2(CCCCC2)c2cc(Br)ccc21)C(=O)O (stereo not shown) [ML67-152, 2-{2,7-dibromo-10H-spiro[acridine-9,1′-cyclohexane]-10-ylmethyl} pentanedioic acid]	No better than ML67-33	< 4.41	45	
